Test results taken from patent US20090137391A1, “Use of benzyladenine to improve emergence of seeds treated with abscisic acid” (priority 2007, published 2009).

How the values were obtained:
Format in all cases: in vivo
canola seed [1] = assay: Canola seed treatment, soil emergence: ABA-dose x benzyladenine (technical powder) dose factorial
Method: The experiment was set up as an ABA-dose×BA-dose factorial experiment, with four doses of ABA (0, 25, 50, and 100 g/cwt) and four doses of benzyladenine (0, 1, 5 and 25 g/cwt) for a total of 16 treatment combinations. The treatments were made up in 1 ml samples of experimental aqueous seed treatment slurry. ABA was added in the form of a water solution of the ammonium salt. Benzyladenine was added as technical powder. Ten μl Tween-20 were added to each sample to help wet and suspend the benzyladenine powder. All of the seed treatment slurry samples contained CF-Clear film-forming agent and Color Coat Red (Becker Underwood), each at 1 oz/cwt, and 0.167 oz/cwt Maxim XL fungicide (Syngenta). The slurry application volume was 40 […]=100 lbs of seed). Ten gram samples of canola seed were treated with the experimental slurries using a Hege 11 seed treater with a six-inch bowl. The seed was planted in plastic boxes containing 1 kg of typical agricultural silt loam. One hundred seeds were planted 2 cm deep in each plastic box, and the soil in the box was adjusted to 21% soil moisture (wet-weight basis). Two replications of the experiment were incubated under constant light in a 10° C. chamber. The soil temperature averaged 12.6° C. The boxes were watered up to the correct weight every 1-2 days, and checked for emergence. Counts of seedlings were continued until it became clear that emergence had ceased (28 days). The final count of emerged seedlings was expressed as a percentage of the 100 seeds planted. The daily counts were converted to proportions of the final emergence of the box, and a Gompertz curve was fitted to the data from each box using SAS Proc NLIN. […] Analysis of variance was performed and means calculated for each of the three responses (Final emergence, […]).

canola seed [2] = assay: Canola seed treatment, soil emergence: ABA-dose x benzyladenine (as Maxcel) dose factorial
Method: (§1) The seed was planted in plastic boxes containing 1 kg of typical agricultural silt loam. One hundred seeds were planted 2 cm deep in each plastic box, and the soil in the box was adjusted to 21% soil moisture (wet-weight basis). Two replications of the experiment were incubated under constant light in a 10° C. chamber. The soil temperature averaged 12.6° C. The boxes were watered up to the correct weight every 1-2 days, and checked for emergence. Counts of seedlings were continued until it became clear that emergence had ceased (28 days). The final count of emerged seedlings was expressed as a percentage of the 100 seeds planted.
(§2) The daily counts were converted to proportions of the final emergence of the box, and a Gompertz curve was fitted to the data from each box using SAS Proc NLIN. From the parameters of the model, median emergence time (T50) and quartile range (Qrange) were estimated for each box. Analysis of variance was performed and means calculated for each of the three responses (Final emergence, T50, Qrange).
The experiment was set up as an ABA-dose x benzyladenine-dose factorial experiment, with four doses of ABA (0, 25, 50 and- 100 g/cwt) and three doses of benzyladenine (0, 1 and 5 g/cwt) for a total of 12 treatment combinations. The treatments were made up in 1 ml samples of experimental aqueous seed treatment slurry. ABA was added in the form of a water solution of the ammonium salt. Benzyladenine was added in the form of Maxcel. Treatments receiving less than the maximum amount of Maxcel, received an appropriate amount of Maxcel blank formulation, so that each slurry sample was identical with regard to Maxcel inert ingredients. All of the seed treatment slurry samples contained CF-Clear film-forming agent and Colorcoat Red (Becker Underwood), each at 1 oz/cwt, and 0.167 oz/cwt Maxim XL fungicide (Syngenta). The slurry application volume was 40 oz/cwt (cwt=100 lbs of seed). Ten gram samples of canola seed were treated with the experimental slurries using a Hege 11 seed treater with a six-inch bowl.
The seed was germinated and data analyzed as described under Example 1.

canola seed [3] = assay: Canola seed treatment, soil emergence: ABA-dose x CPPU (as Prestige) dose factorial
Method: as §1, §2
The experiment was set up as an ABA-dose×CPPU-dose factorial experiment, with four doses of ABA (0, 25, 50 and 100 g/cwt) and […] doses of CPPU (0, 0.04, 0.2 and 1 g/cwt) for a total of 16 treatment combinations. The treatments were made up in 1 ml samples of experimental aqueous seed treatment slurry. ABA was added as the free acid. CPPU was added in the form of Prestige®. Treatments receiving less than the maximum amount of Prestige, received an appropriate amount of Prestige blank formulation, so that each slurry sample was identical with regard to Prestige inert ingredients. All of the seed treatment slurry samples contained CF-Clear film-forming agent and Colorcoat Red (Becker Underwood), each at 1 oz/cwt, and 0.167 oz/cwt Maxim XL fungicide (Syngenta). The slurry application volume was 40 oz/cwt (cwt=100 lbs of seed). Ten gram samples of canola seed were treated with the experimental slurries using a Hege 11 seed treater with a six-inch bowl.
The seed was germinated and data analyzed as described under Example 1, except that emergence, being unusually low in this trial, rendered the quartile range estimates unreliable. Therefore, quartile range values are not shown.

canola seed [4] = assay: Canola seed treatment, soil emergence: ABA-dose x GA4/7 dose factorial; details: for Final emergence / QR / T50: GA4/7 dose 0 g/cwt
Method: The experiment was set up as an ABA-dose×GA4/7-dose factorial experiment, with four doses of ABA (0, 25, 50 and 100 g/cwt) and […] doses of GA4/7 (0, 1, 5 and 25 g/cwt) for a total of 16 treatment combinations. The treatments were made up in 1 ml samples of experimental aqueous seed treatment slurry. ABA and GA4/7 were added as the free acid technical powders. All of the seed treatment slurry samples contained CF-Clear film-forming agent and Colorcoat Red (Becker Underwood), each at 1 oz/cwt, and 0.167 oz/cwt Maxim XL fungicide (Syngenta). The slurry application volume was 40 oz/cwt (cwt=100 lbs of seed). Ten gram samples of canola seed were treated with the experimental slurries using a Hege 11 seed treater with a six-inch bowl.

[5] = ABA dose 0 g/cwt, Benzyladenine dose 1 g/cwt (technical powder)
[6] = ABA dose 0 g/cwt, Benzyladenine dose 5 g/cwt (technical powder)
[7] = ABA dose 0 g/cwt, Benzyladenine dose 25 g/cwt (technical powder)
[8] = ABA dose 0 g/cwt, Benzyladenine dose 1 g/cwt (in the form of Maxcel)
[9] = ABA dose 0 g/cwt, Benzyladenine dose 5 g/cwt (in the form of Maxcel)
[10] = ABA dose 0 g/cwt, CPPU dose 0.04 g/cwt (in the form of Prestige)
[11] = ABA dose 0 g/cwt, CPPU dose 0.2 g/cwt (in the form of Prestige)
[12] = ABA dose 0 g/cwt, CPPU dose 1 g/cwt (in the form of Prestige)
[13] = ABA (ammonium salt) dose 25 g/cwt, Benzyladenine dose 0 g/cwt
[14] = ABA (ammonium salt) dose 50 g/cwt, Benzyladenine dose 0 g/cwt
[15] = ABA (ammonium salt) dose 100 g/cwt, Benzyladenine dose 0 g/cwt
[16] = ABA (ammonium salt) dose 25 g/cwt, Benzyladenine dose 0 g/cwt (Maxcel blank)
[17] = ABA (ammonium salt) dose 50 g/cwt, Benzyladenine dose 0 g/cwt (Maxcel blank)
[18] = ABA (ammonium salt) dose 100 g/cwt, Benzyladenine dose 0 g/cwt (Maxcel blank)
[19] = ABA (free acid) dose 25 g/cwt, CPPU dose 0 g/cwt (Prestige blank)
[20] = ABA (free acid) dose 50 g/cwt, CPPU dose 0 g/cwt (Prestige blank)
[21] = ABA (free acid) dose 100 g/cwt, CPPU dose 0 g/cwt (Prestige blank)

c1ccc(CNc2[nH]cnc3ncnc2-3)cc1 [Benzyladenine, N^6-phenylmethyl-1H-purin-6-amine] gave a Final emergence (canola seed [1]; [5]) of 98.0%, a Qrange (canola seed [1]; [5]) of 1.30 days and a T50 (canola seed [1]; [5]) of 6.37 days. It also gave a Final emergence (canola seed [1]; [6]) of 91.6%, a Qrange (canola seed [1]; [6]) of 2.36 days and a T50 (canola seed [1]; [6]) of 6.76 days. The Final emergence (canola seed [1]; [7]) was 89.9%, the Qrange (canola seed [1]; [7]) was 3.02 days and the T50 (canola seed [1]; [7]) was 7.88 days. The Final emergence (canola seed [2]; [8]) was 97.5%, the Qrange (canola seed [2]; [8]) was 1.84 days and the T50 (canola seed [2]; [8]) was 6.02 days. It also gave a Final emergence (canola seed [2]; [9]) of 97.1%, a Qrange (canola seed [2]; [9]) of 1.77 days and a T50 (canola seed [2]; [9]) of 6.09 days.
O=C(Nc1ccccc1)Nc1ccnc(Cl)c1 [CPPU] showed a Final emergence (canola seed [3]; [10]) of 80.3%, a T50 (canola seed [3]; [10]) of 7.12 days and a Final emergence (canola seed [3]; [11]) of 78.1%. It also gave a T50 (canola seed [3]; [11]) of 7.48 days, a Final emergence (canola seed [3]; [12]) of 77.6% and a T50 (canola seed [3]; [12]) of 8.30 days.
In the case of S-(+)- abscisic acid [ABA], the Final emergence (canola seed [1]; [13]) is reported as 92.3%, the Qrange (canola seed [1]; [13]) is reported as 3.26 days and the T50 (canola seed [1]; [13]) is reported as 9.15 days. The Final emergence (canola seed [1]; [14]) was 68.9%, the Qrange (canola seed [1]; [14]) was 4.27 days and the T50 (canola seed [1]; [14]) was 11.20 days. For the same molecule, the Final emergence (canola seed [1]; [15]) was 53.5%, the Qrange (canola seed [1]; [15]) was 4.27 days and the T50 (canola seed [1]; [15]) was 12.74 days. The “Final emergence” value (canola seed [1]; ABA at a dose of 100 g/cwt) was “roughly cut in half”, the Final emergence (canola seed [2]; [16]) was 92.9% and the Qrange (canola seed [2]; [16]) was 2.06 days. For the same molecule, the T50 (canola seed [2]; [16]) was 8.17 days, the Final emergence (canola seed [2]; [17]) was 91.4% and the Qrange (canola seed [2]; [17]) was 3.74 days. It also gave a T50 (canola seed [2]; [17]) of 10.57 days, a Final emergence (canola seed [2]; [18]) of 49.5% and a Qrange (canola seed [2]; [18]) of 5.84 days. The T50 (canola seed [2]; [18]) was 13.61 days, the “Final emergence” value (canola seed [2]; ABA at a dose of 100 g/cwt) was “roughly cut in half” and the Final emergence (canola seed [3]; [19]) was 84.0%. For the same molecule, the T50 (canola seed [3]; [19]) was 10.4 days, the Final emergence (canola seed [3]; [20]) was 66.0% and the T50 (canola seed [3]; [20]) was 12.16 days. For the same molecule, the Final emergence (canola seed [3]; [21]) was 48.0%, the T50 (canola seed [3]; [21]) was 16.48 days and the “emergence” value (canola seed [3]; high doses of ABA) was “significant and important reduction in emergence”. The Final emergence (canola seed [4]; ABA (free acid) dose 25 g/cwt) was 84.0%, the QR (canola seed [4]; ABA (free acid) dose 25 g/cwt) was 3.33 days and the T50 (canola seed [4]; ABA (free acid) dose 25 g/cwt) was 10.42 days. The Final emergence (canola seed [4]; ABA (free acid) dose 50 g/cwt) was 66.0%, the QR (canola seed [4]; ABA (free acid) dose 50 g/cwt) was 3.38 days and the T50 (canola seed [4]; ABA (free acid) dose 50 g/cwt) was 12.16 days. For the same molecule, the Final emergence (canola seed [4]; ABA (free acid) dose 100 g/cwt) was 48.0%, the QR (canola seed [4]; ABA (free acid) dose 100 g/cwt) was 5.69 days and the T50 (canola seed [4]; ABA (free acid) dose 100 g/cwt) was 16.48 days. For the same molecule, the “emergence” value (canola seed [4]; high doses of ABA alone) was “significant and important reduction in emergence”.
